In publication PMC8299157 (Antiviral Research, 2021):
Structures can show the parent of a compound that is named as a salt. Where two headings read alike, the source gives them in different places.

Legend:
human N7-MTase RNMT-RAM = human N7-MTase RNMT-RAM (Homo sapiens, UniProt O43148); experiment: Py-FLINT N7-MTase inhibition assay; type: biochemical; conditions: for IC50 Py-FLINT (RNMT-RAM): 2 μM Py-FLINT probe, 20 μM SAM, 20 nM RNMT-RAM
SARS-CoV-2 = type: cell-based; conditions: for EC50: read-out: EC50 Antiviral assay
nsp14 = nsp14 (Severe acute respiratory syndrome coronavirus 2, UniProt P0DTD1); type: binding, SARS-CoV-2; conditions: 100 μM inhibitor; for Inhibitor type (targeted binding site): from both FA competition assays
in vitro = conditions: human
[1] = target: SARS-CoV-2 nsp14 N7-MTase (Severe acute respiratory syndrome coronavirus 2, UniProt P0DTD1); experiment: Py-FLINT N7-MTase inhibition assay; type: biochemical
nsp14 N7-MTase = nsp14 N7-MTase (Severe acute respiratory syndrome coronavirus 2, UniProt P0DTD1); experiment: RP HPLC inhibition study of Gp3A N7-methylation; type: biochemical, SARS-CoV-2

Chain of human N7-MTase RNMT-RAM (O43148 whole entry): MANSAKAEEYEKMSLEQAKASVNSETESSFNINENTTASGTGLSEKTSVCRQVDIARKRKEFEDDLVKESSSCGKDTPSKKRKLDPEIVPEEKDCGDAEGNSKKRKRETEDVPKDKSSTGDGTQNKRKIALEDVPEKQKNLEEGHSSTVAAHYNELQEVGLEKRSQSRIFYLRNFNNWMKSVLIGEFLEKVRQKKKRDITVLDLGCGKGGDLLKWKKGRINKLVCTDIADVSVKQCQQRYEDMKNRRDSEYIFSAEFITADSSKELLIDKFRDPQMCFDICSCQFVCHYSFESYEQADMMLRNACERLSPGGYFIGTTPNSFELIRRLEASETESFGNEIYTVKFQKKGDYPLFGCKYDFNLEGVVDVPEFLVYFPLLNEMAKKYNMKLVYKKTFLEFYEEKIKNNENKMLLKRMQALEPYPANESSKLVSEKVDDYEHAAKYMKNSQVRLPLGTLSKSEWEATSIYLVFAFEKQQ
Chain of human N7-MTase RNMT-RAM (Q9BTL3 whole entry partner): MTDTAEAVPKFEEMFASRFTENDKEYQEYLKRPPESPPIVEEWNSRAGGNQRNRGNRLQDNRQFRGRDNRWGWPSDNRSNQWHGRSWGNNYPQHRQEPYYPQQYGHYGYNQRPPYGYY

| SMILES | Inhibitor type (targeted binding site) (nsp14) | IC50 (human N7-MTase RNMT-RAM) [µM] | CC50 (in vitro) [µM] | CC50/EC50 Selectivity index (SARS-CoV-2; Huh 7 cells) | further results |
| --- | --- | --- | --- | --- | --- |
| CC(=O)OC[C@H]1O[C@@H]([S-])[C@H](OC(C)=O)[C@@H](OC(C)=O)[C@@H]1OC(C)=O.CCP(CC)CC.[Au+] [FI9, Auranofin] | bound by nsp14 within the nucleotide binding pocket | – | – | – | IC50 Py-FLINT (RNMT-RAM) (human N7-MTase RNMT-RAM): no human N7-MTase inhibition; EC50 (SARS-CoV-2): > 100 µM |
| O=c1c(O)c(-c2cc(O)c(O)c(O)c2)oc2cc(O)cc(O)c12 [LI8, Myricetin] | – | 3.57 ± 0.36 | 41.6 ± 7.1 | – | – |
| COC(=O)c1c(NC(=O)c2cc3ccccc3o2)sc(C)c1C [OI1, Methyl 2-[(1-benzofuran-2-ylcarbonyl)amino]-4,5-dimethylthiophene-3-carboxylate] | bound by nsp14 within the nucleotide binding pocket | > 100 | > 100 | not active | IC50 Py-FLINT (RNMT-RAM) (human N7-MTase RNMT-RAM): no human N7-MTase inhibition |
| CC(C)N(CCC(=O)c1ccc2ccccc2c1)Cc1ccccc1 [LI7, ZM 39923 HCl] | bound by nsp14 within the nucleotide binding pocket | 15.9 ± 3.3 | 12.2 ± 0.6 | not active | – |
| O=c1cc(-c2ccccc2)oc2cc(O)c(O)c(O)c12 [baicalein] | – | – | – | – | inhibition of reaction progress in library screening ([1]; 50 μM library compound): did not observe such activity |
| NCCOc1cc(C(=O)Nc2cc(OCCN)c3ccccc3n2)nc(C(=O)Nc2cc(OCCN)c3ccccc3n2)c1 [LI3, Pyridostatin xCF3COO^-] | – | 3.1 | 59.3 ± 21.6 | 16.6 ± 6.1 | p (Hill slope) ([1]; compounds selected from LOPAC1280 library (Table S3)): 18.1; EC50 (SARS-CoV-2): 3.58 ± 0.16 µM; EC50 (SARS-CoV-2; listed as Pyridostatin): < 50 µM; FA values in both binding assays and control sample (nsp14): high FA values in both assays as well as in the control sample; inhibition of m7Gp3A formation (RP HPLC) (nsp14 N7-MTase): lower potency |
| Oc1c(Cl)cc(Cl)c(Cl)c1Cc1c(O)c(Cl)cc(Cl)c1Cl [FI11, Hexachlorophene] | bound by nsp14 within the nucleotide binding pocket | 8 ± 3.2 | – | – | CC50/EC50 Selectivity index (SARS-CoV-2): not active |
| Clc1cccc(/C=C/c2nn3c(-c4ccco4)nnc3s2)c1 [OI2, (E)-6-(3-Chlorostyryl)-3-(furan-2-yl)-[1,2,4]triazolo[3,4-b][1,3,4]thiadiazole] | bound by nsp14 within the nucleotide binding pocket | > 100 | 71.3 ± 5.9 | not active | IC50 Py-FLINT (RNMT-RAM) (human N7-MTase RNMT-RAM): no human N7-MTase inhibition |
| Cc1cc(-c2ccc(/N=N/c3ccc4c(S(=O)(=O)O)cc(S(=O)(=O)O)c(N)c4c3O)c(C)c2)ccc1/N=N/c1ccc2c(S(=O)(=O)O)cc(S(=O)(=O)O)c(N)c2c1O [FI7, Evans Blue] | – | 0.33 ± 0.05 | 35.6 ± 1 | 1.15 ± 0.04 | EC50 (SARS-CoV-2): 31 ± 0.9 µM |
| Nc1ncnc2c1ncn2[C@@H]1O[C@H](C[C@@H](N)CC[C@H](N)C(=O)O)[C@@H](O)[C@H]1O [Sinefungin] | – | 0.22 ± 0.02 | > 100 | – | – |
| O=c1c2ccccc2[se]n1-c1ccccc1 [FI6, Ebselen] | – | 23.8 ± 1.3 | – | – | – |
| O=C1c2c(O)ccc(O)c2C(=O)c2c(NCCNCCO)ccc(NCCNCCO)c21 [LI5, Mitoxantrone 2HCl] | – | 3.92 ± 0.21 | < 0.04 | not active | FA values in both binding assays and control sample (nsp14): high FA values in both assays as well as in the control sample; inhibition of m7Gp3A formation (RP HPLC) (nsp14 N7-MTase): lower potency |
| Nc1c(S(=O)(=O)O)cc(Nc2ccc(Nc3nc(Cl)nc(Nc4cccc(S(=O)(=O)O)c4)n3)c(S(=O)(=O)O)c2)c2c1C(=O)c1ccccc1C2=O [LI4, Reactive Blue 2] | – | 1.5 ± 0.28 | 52.6 ± 10.2 | – | EC50 (SARS-CoV-2): 16.3 ± 0.3 µM; EC50 (SARS-CoV-2; listed as Reactive Blue 2): < 50 µM |
| N.N.N.N.N.N.N.N.N.N.N.N.N.N.[Cl-].[Cl-].[Cl-].[Cl-].[Cl-].[Cl-].[O-2].[O-2].[Ru+3].[Ru+3].[Ru+4] [LI6, Ruthenium red] | – | – | – | – | inhibition of m7Gp3A formation (RP HPLC) (nsp14 N7-MTase): lower potency |
